# Patent US10919941B2, “Functional lipid constructs” (KODE BIOTECH LIMITED, priority 2007, dated 2021)
# Tested on: CSL monoclonal anti-A
# Experiment: BioVue serology of RBCs modified with Atri-lipid constructs against anti-A
# Format: cell-based
# Set-up: key: 0 or ‘−’ no agglutination; 0 or ‘−’ no agglutination; 1+ or 3=very weak agglutination; 1+ or 3=very weak agglutination; 2+ or 5=weak agglutination; 2+ or 5=weak agglutination; 3+ or 8=moderate strong agglutination; 3+ or 8=moderate strong agglutination; 4+ or 10/12=strong agglutination; 4+ or 10/12=strong agglutination; 4+ or 10/12=strong agglutination
# Description: To test the hypothesis solutions of four different trisaccharide (Atri)-lipid constructs were prepared as 50 μM, 10 μM and 5 μM solutions in Celpresol™. Modified red blood cells were then prepared by contacting 0.6 mls (pcv) of washed RBCs with 0.6 mls of the relevant solution. The mixtures were incubated at 37° C. for 2 hours and then washed 3 times to provide a modified cell suspension.
# The modified cell suspensions were prepared in 0.8% in Celpresol LISS™ suitable for BioVue serology cards. A volume of 0.05 mls of CSL monoclonal anti-A (026129801) followed by 0.05 mls of modified cell suspension was applied to each card. Reactions were recorded following centrifugation in a BioVue cassette centrifuge (Table 29).
# There was no significant gain with CMG(2) compared with CMG(4). There was a minor, but not significant change for MCMG (2).
substance,measurement,setting,value
Adipate,"Serological result, anti-A Neat",construct 5 μM,8
same,"Serological result, reciprocal of dilution of anti-A 2",construct 5 μM,8
same,"Serological result, reciprocal of dilution of anti-A 4",construct 5 μM,5
same,"Serological result, reciprocal of dilution of anti-A 8",construct 5 μM,3
same,"Serological result, anti-A Neat",construct 10 μM,10
same,"Serological result, reciprocal of dilution of anti-A 2",construct 10 μM,10
same,"Serological result, reciprocal of dilution of anti-A 4",construct 10 μM,10
same,"Serological result, reciprocal of dilution of anti-A 8",construct 10 μM,8
same,"Serological result, reciprocal of dilution of anti-A 16",construct 10 μM,8
same,"Serological result, reciprocal of dilution of anti-A 32",construct 10 μM,8
same,"Serological result, reciprocal of dilution of anti-A 64",construct 10 μM,8
same,"Serological result, reciprocal of dilution of anti-A 128",construct 10 μM,3
same,"Serological result, anti-A Neat",construct 50 μM,12
same,"Serological result, reciprocal of dilution of anti-A 2",construct 50 μM,12
same,"Serological result, reciprocal of dilution of anti-A 4",construct 50 μM,12
same,"Serological result, reciprocal of dilution of anti-A 8",construct 50 μM,12
same,"Serological result, reciprocal of dilution of anti-A 16",construct 50 μM,12
same,"Serological result, reciprocal of dilution of anti-A 32",construct 50 μM,12
same,"Serological result, reciprocal of dilution of anti-A 64",construct 50 μM,10
same,"Serological result, reciprocal of dilution of anti-A 128",construct 50 μM,8
same,"Serological result, reciprocal of dilution of anti-A 256",construct 50 μM,8
same,"Serological result, reciprocal of dilution of anti-A 512",construct 50 μM,3
